For the assay, the target named is T1, Peptidoglycan D,D-transpeptidase FtsI (UniProt P0AD68).
T1 sequence (P0AD68 whole entry): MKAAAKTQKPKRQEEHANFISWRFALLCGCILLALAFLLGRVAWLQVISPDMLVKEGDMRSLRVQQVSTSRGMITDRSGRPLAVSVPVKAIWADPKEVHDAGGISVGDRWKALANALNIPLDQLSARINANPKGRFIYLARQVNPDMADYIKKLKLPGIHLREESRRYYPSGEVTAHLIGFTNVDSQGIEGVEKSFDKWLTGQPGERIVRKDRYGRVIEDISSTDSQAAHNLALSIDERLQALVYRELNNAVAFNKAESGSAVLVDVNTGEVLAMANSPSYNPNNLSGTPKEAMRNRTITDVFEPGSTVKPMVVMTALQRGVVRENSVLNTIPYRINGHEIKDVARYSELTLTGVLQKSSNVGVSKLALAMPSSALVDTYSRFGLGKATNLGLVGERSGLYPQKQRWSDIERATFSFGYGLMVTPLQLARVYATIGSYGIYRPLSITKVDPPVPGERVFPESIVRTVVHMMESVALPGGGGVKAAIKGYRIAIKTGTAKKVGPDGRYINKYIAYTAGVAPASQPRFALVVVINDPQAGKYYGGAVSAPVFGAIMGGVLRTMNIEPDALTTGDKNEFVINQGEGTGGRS
Kind of assay: Fluorescence Polarization (FP) Competition Binding Assay. How it is done: To establish assay conditions for competition binding, an enzyme titration/saturation binding experiment was initially performed. Bocillin-FL was prepared at 0.2 μM in a buffer comprised of 50 mM Hepes (pH 8.0), 300 mM NaCl and 5% (v/v) glycerol. […] FP was measured immediately upon mixing (Excitation, 490 nm; Emission, 520 nm; g-factor, 0.96), using a Cytation3 (BioTek) microplate reader and measured continuously for up to 120 minutes. […] Bocillin-FL was added and the FP immediately measured for 60 minutes (90 minutes for PBP2).
(In general: Polarisation of emitted light reports the rotation of a fluorescent probe.)

SMILES strings stand for the structures. A value given as a limit tells only on which side of the number the result lay.

Broadly, the EC50 is the concentration that produces a half-maximal response. Lower therefore signals higher potency in that assay. `CCN1CCN(C(=O)NC(C(=O)N[C@H]2Cc3cccc(C(=O)O)c3OB2O)c2ccc(O)c(S(N)(=O)=O)c2)C(=O)C1=O` (some centres not stated) [US12173018, Example 143]: the EC50 is < 30 µM. To `NCCN1CCN(C(=O)N[C@@H](C(=O)N[C@H]2Cc3cccc(C(=O)O)c3OB2O)c2ccc(O)c(O)c2Cl)C(=O)C1=O` [US12173018, Example 220] belongs < 30 µM.

Values taken from BindingDB's records for patent US12173018 (Venatorx Pharmaceuticals, 2024).
